Values of other authors in patent publication US20110288042A1, “STABLE HIGHLY PURE AZACITIDINE AND PREPARATION METHODS THEREFOR” (CHEMAGIS LTD., priority 2007, published 2011).

Conditions: reported; cited from earlier work

O=c1ncccn1[C@@H]1O[C@H](CO)[C@@H](O)[C@H]1O [zebularine]
Stability in aqueous solution: stable in aqueous solution
